Starred links: 1 amine or outer side, 2 acyl side, 3 side chain; linkers in the order of their positions; H or OH if unused. Positions of bridges follow the written chain, without caps; N, C: chain ends. Non-standard residues stand in square brackets, D forms with d. Residues, ends and D or L forms follow the SMILES beside them. Groups on a side chain read outwards from the residue. *: point of attachment. εLys(α-Octadecanedioyl) = O=C(O)CCCCCCCCCCCCCCCCC(=O)N[C@@H](CCCCN*)C(=O)O; X6 = O=C(O)CCCCCCCCCCCCCCCCC(=O)N[C@@H](CCC(=O)NCCCOCCOCCOCCCN*)C(=O)O; Trp(1-CH2COOH) = N[C@@H](Cc1cn(CC(=O)O)c2ccccc12)C(=O)O; NH(CH2)16COOH = O=C(O)CCCCCCCCCCCCCCCCN*; NH(CH2)14COOH = O=C(O)CCCCCCCCCCCCCCN*; γGlu = O=C(O)[C@H](CCC(=O)[*:2])N[*:1]; d(cisHyp) = O=C(O)[C@H]1C[C@@H](O)CN1; NH(CH2)12COOH = O=C(O)CCCCCCCCCCCCN*; Palmitoyl = CCCCCCCCCCCCCCCC(=O)*; Hyp = O=C(O)[C@@H]1C[C@@H](O)CN1; Myristoyl = CCCCCCCCCCCCCC(=O)*; NMeNle = CCCC[C@H](NC)C(=O)O; Pip = O=C(O)[C@@H]1CCCCN1; NMeA = CN[C@@H](C)C(=O)O; Pra = C#CC[C@H](N)C(=O)O; Aun = NCCCCCCCCCCC(=O)O; Dab = NCC[C@H](N)C(=O)O; Dap = NC[C@H](N)C(=O)O; Ava = NCCCCC(=O)O
What follows are molecules tested against T1, PD-L1 (Homo sapiens, UniProt Q9NZQ7) (assay: PD-1/PD-L1 Homogenous Time-Resolved Fluorescence (HTRF) binding assay (PD-1-Ig/PD-L1-His)). Details: inhibition of PD-1-Ig binding to PD-L1-TVMV-His; value given as range class; read-out: HTRF IC50.
T1 construct: hPDL1(19-239)-TVMV-His; made in house; host or cells: HEK293T
In short: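 Inhibitors pre-incubated 15 min with PD-L1-His (10 nM final), then PD-1-Ig (20 nM final) added for 15 min in dPBS/0.1% BSA/0.05% Tween-20. Eu-cryptate anti-Ig (1 nM) and APC anti-His (20 nM) added, 30 min equilibration, 665/620 nm HTRF ratio read.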

T1 sequence (Q9NZQ7 with tags, fused parts or gaps): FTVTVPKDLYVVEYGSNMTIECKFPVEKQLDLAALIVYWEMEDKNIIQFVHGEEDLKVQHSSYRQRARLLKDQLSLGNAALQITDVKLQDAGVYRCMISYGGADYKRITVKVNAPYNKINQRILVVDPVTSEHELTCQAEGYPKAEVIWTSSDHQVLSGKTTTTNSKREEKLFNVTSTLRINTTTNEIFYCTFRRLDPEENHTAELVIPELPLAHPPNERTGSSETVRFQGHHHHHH

IC50	SMILES
100 to 1600 nM	CCCC[C@H]1C(=O)N(C)[C@@H](CCCC)C(=O)N[C@@H](CC(C)C)C(=O)N[C@H](C(=O)NCC(=O)NCC(=O)NCCCCCCCCCCCCCCCCC(=O)O)CSCC(=O)N[C@@H](Cc2ccc(O)cc2)C(=O)N(C)[C@@H](C)C(=O)N[C@@H](CC(N)=O)C(=O)N2CCC[C@H]2C(=O)N[C@@H](CN)C(=O)N[C@@H](CC(C)C)C(=O)N2C[C@H](O)C[C@H]2C(=O)N[C@@H](Cc2c[nH]c3ccccc23)C(=O)N[C@@H](CCN)C(=O)N[C@@H](Cc2cn(CC(=O)O)c3ccccc23)C(=O)N1C [Example 11189] ({CH2CO}-Y[NMeA]NP[Dap]L[Hyp]W[Dab][Trp(1-CH2COOH)][NMeNle][NMeNle]LCGG-{NH(CH2)16COOH}; thioether N-14)
10 to 99 nM	CCCC[C@H]1C(=O)N(C)[C@@H](CCCC)C(=O)N[C@@H](CC(C)C)C(=O)N[C@H](C(=O)NCC(=O)N[C@@H](CC(=O)O)C(=O)NCCCCCCCCCCCCC(=O)O)CSCC(=O)N[C@@H](Cc2ccc(O)cc2)C(=O)N(C)[C@@H](C)C(=O)N[C@@H](CC(=O)O)C(=O)N2CCC[C@H]2C(=O)N[C@@H](Cc2cnc[nH]2)C(=O)N[C@@H](CCCCN)C(=O)N2C[C@H](O)C[C@H]2C(=O)N[C@@H](Cc2c[nH]c3ccccc23)C(=O)N[C@@H](CCCCN)C(=O)N[C@@H](Cc2cn(CC(=O)O)c3ccccc23)C(=O)N1C [Example 11213] ({CH2CO}-Y[NMeA]DPHK[Hyp]WK[Trp(1-CH2COOH)][NMeNle][NMeNle]LCGD-{NH(CH2)12COOH}; thioether N-14)
10 to 99 nM	CCCC[C@H]1C(=O)N(C)[C@@H](CCCC)C(=O)N[C@@H](CC(C)C)C(=O)C[C@H](C(=O)NCC(=O)N[C@@H](CCC(=O)O)C(=O)NCCCOCCOCCOCCCNC(=O)CC[C@H](NC(=O)CCCCCCCCCCCCCCC(=O)O)C(=O)O)CSCC(=O)N[C@@H](Cc2ccc(O)cc2)C(=O)N(C)[C@@H](C)C(=O)N[C@@H](CC(N)=O)C(=O)N2CCC[C@H]2C(=O)N[C@@H](CN)C(=O)N[C@@H](CC(C)C)C(=O)N2C[C@H](O)C[C@H]2C(=O)N[C@@H](Cc2c[nH]c3ccccc23)C(=O)N[C@@H](CCN)C(=O)N[C@@H](Cc2cn(CC(=O)O)c3ccccc23)C(=O)N1C [Example 11184]
0.3 to 9.9 nM	CCCC[C@H]1C(=O)N(C)[C@@H](CCCC)C(=O)N[C@@H](CCC(=O)O)C(=O)N[C@H](C(=O)NCC(=O)N[C@@H](Cc2cn(CC[C@H](NC(=O)CCCCCCCCCCCCCCC(=O)O)C(=O)O)nn2)C(=O)NCC(N)=O)CSCC(=O)N[C@@H](Cc2ccc(O)cc2)C(=O)N(C)[C@@H](C)C(=O)N[C@@H](CC(=O)O)C(=O)N2CCC[C@H]2C(=O)N[C@@H](Cc2c[nH]cn2)C(=O)N[C@@H](CCCCN)C(=O)N2C[C@H](O)C[C@H]2C(=O)N[C@@H](Cc2c[nH]c3ccccc23)C(=O)N[C@@H](CCCCN)C(=O)N[C@@H](Cc2c[nH]c3ccccc23)C(=O)N1C [Example 14064]

Second part, the molecule before the results:

SMILES	IC50
CCCCCCCCCCCCCCCC(=O)NCCCC[C@H](NC(=O)CNC(=O)[C@@H]1CSCC(=O)N[C@@H](Cc2ccc(O)cc2)C(=O)N(C)[C@@H](C)C(=O)N[C@@H](CC(N)=O)C(=O)N2CCC[C@H]2C(=O)N[C@@H](CCN)C(=O)N[C@@H](CC(C)C)C(=O)N2C[C@H](O)C[C@H]2C(=O)N[C@@H](Cc2c[nH]c3ccccc23)C(=O)N[C@@H](CO)C(=O)N[C@@H](Cc2c[nH]c3ccccc23)C(=O)N(C)[C@@H](CCCC)C(=O)N(C)[C@@H](CCCC)C(=O)N[C@@H](CCCNC(=N)N)C(=O)N1)C(N)=O [Example 11020] ({CH2CO}-Y[NMeA]NP[Dab]L[Hyp]WSW[NMeNle][NMeNle]RCGK(Palmitoyl)-NH2; thioether N-14)	100 to 1600 nM
CCCC[C@H]1C(=O)N(C)[C@@H](CCCC)C(=O)N[C@@H](CC(C)C)C(=O)N[C@H](C(=O)NCC(=O)NCC(=O)NCC(=O)NCCCCC(=O)O)CSCC(=O)N[C@@H](Cc2ccc(O)cc2)C(=O)N(C)[C@@H](C)C(=O)N[C@@H](CC(N)=O)C(=O)N2CCC[C@H]2C(=O)N[C@@H](CN)C(=O)N[C@@H](CC(C)C)C(=O)N2C[C@H](O)C[C@@H]2C(=O)N[C@@H](Cc2c[nH]c3ccccc23)C(=O)N[C@@H](CCN)C(=O)N[C@@H](Cc2cn(CC(=O)O)c3ccccc23)C(=O)N1C [Example 11137] ({CH2CO}-Y[NMeA]NP[Dap]L[d(cisHyp)]W[Dab][Trp(1-CH2COOH)][NMeNle][NMeNle]LCGGG[Ava]-OH; thioether N-14)	10 to 99 nM
CCCC[C@H]1C(=O)N(C)[C@@H](CCCC)C(=O)N[C@@H](CCC(=O)O)C(=O)N[C@H](C(=O)NCC(=O)N[C@@H](Cc2cn(CC[C@H](NC(=O)CCCCCCCCCCCCCCC(=O)O)C(=O)O)nn2)C(=O)N[C@@H](CC(=O)O)C(N)=O)CSCC(=O)N[C@@H](Cc2ccc(O)cc2)C(=O)N(C)[C@@H](C)C(=O)N[C@@H](CC(=O)O)C(=O)N2CCC[C@H]2C(=O)N[C@@H](Cc2c[nH]cn2)C(=O)N[C@@H](CCCCN)C(=O)N2C[C@H](O)C[C@H]2C(=O)N[C@@H](Cc2c[nH]c3ccccc23)C(=O)N[C@@H](CCCCN)C(=O)N[C@@H](Cc2cn(CC(=O)O)c3ccccc23)C(=O)N1C [Example 14071]	10 to 99 nM
CCCC[C@H]1C(=O)N(C)[C@@H](CCCC)C(=O)N[C@@H](CC(C)C)C(=O)N[C@H](C(=O)NCC(=O)N[C@H](CC(=O)O)C(=O)NCCCCCCCCCCCCCCC(=O)O)CSCC(=O)N[C@@H](Cc2ccc(O)cc2)C(=O)N(C)[C@@H](C)C(=O)N[C@@H](CC(N)=O)C(=O)N2CCC[C@H]2C(=O)N[C@@H](CN)C(=O)N[C@@H](CC(C)C)C(=O)N2C[C@H](O)C[C@H]2C(=O)N[C@@H](Cc2c[nH]c3ccccc23)C(=O)N[C@@H](CCN)C(=O)N[C@@H](Cc2cn(CC(=O)O)c3ccccc23)C(=O)N1C [Example 11195] ({CH2CO}-Y[NMeA]NP[Dap]L[Hyp]W[Dab][Trp(1-CH2COOH)][NMeNle][NMeNle]LCG[dD]-{NH(CH2)14COOH}; thioether N-14)	10 to 99 nM
C#CC[C@H](NC(=O)CNC(=O)[C@@H]1CSCC(=O)N[C@@H](Cc2ccc(O)cc2)C(=O)N(C)[C@@H](C)C(=O)N[C@@H](CC(=O)O)C(=O)N2CCC[C@H]2C(=O)N[C@@H](Cc2c[nH]cn2)C(=O)N[C@@H](CCCCN)C(=O)N2C[C@H](O)C[C@H]2C(=O)N[C@@H](Cc2c[nH]c3ccccc23)C(=O)N[C@@H](CCCCN)C(=O)N[C@@H](Cc2cn(CC(=O)O)c3ccccc23)C(=O)N(C)[C@@H](CCCC)C(=O)N(C)[C@@H](CCCC)C(=O)N[C@@H](CCC(=O)O)C(=O)N1)C(=O)O [INT 1300Y] ({CH2CO}-Y[NMeA]DPHK[Hyp]WK[Trp(1-CH2COOH)][NMeNle][NMeNle]ECG[Pra]-OH; thioether N-14)	0.3 to 9.9 nM
CCCC[C@H]1C(=O)N(C)[C@@H](CCCC)C(=O)N[C@@H](CC(C)C)C(=O)N[C@H](C(=O)NCC(=O)N[C@@H](CC(=O)NCCCOCCOCCOCCCNC(=O)CC[C@H](NC(=O)CCCCCCCCCCCCCCCCC(=O)O)C(=O)O)C(=O)O)CSCC(=O)N[C@@H](Cc2ccc(O)cc2)C(=O)N2CCCC[C@H]2C(=O)N[C@@H](CC(N)=O)C(=O)N2CCC[C@H]2C(=O)N[C@@H](CN)C(=O)N[C@@H](CC(C)C)C(=O)N2C[C@H](O)C[C@H]2C(=O)N[C@@H](Cc2c[nH]c3ccccc23)C(=O)N[C@@H](CCN)C(=O)N[C@@H](Cc2cn(CC(=O)O)c3ccccc23)C(=O)N1C [Example 11262] ({CH2CO}-Y[Pip]NP[Dap]L[Hyp]W[Dab][Trp(1-CH2COOH)][NMeNle][NMeNle]LCGD(X6)-OH; thioether N-14)	10 to 99 nM
CCCCCCCCCCCCCC(=O)N[C@@H](CCC(=O)NCCCC[C@H](NC(=O)CNC(=O)CNC(=O)CNC(=O)CNC(=O)[C@@H]1CSCC(=O)N[C@@H](Cc2ccc(O)cc2)C(=O)N(C)[C@@H](C)C(=O)N[C@@H](CC(N)=O)C(=O)N2CCC[C@H]2C(=O)N[C@@H](Cc2cnc[nH]2)C(=O)N[C@@H](CC(C)C)C(=O)N2C[C@H](O)C[C@H]2C(=O)N[C@@H](Cc2c[nH]c3ccccc23)C(=O)N[C@@H](CO)C(=O)N[C@@H](Cc2c[nH]c3ccccc23)C(=O)N(C)[C@@H](CCCC)C(=O)N(C)[C@@H](CCCC)C(=O)N[C@@H](CCCNC(=N)N)C(=O)N1)C(N)=O)C(=O)O [Example 11114] ({CH2CO}-Y[NMeA]NPHL[Hyp]WSW[NMeNle][NMeNle]RCGGGGK([γGlu-Myristoyl])-NH2; thioether N-14)	100 to 1600 nM
CCCC[C@H]1C(=O)N(C)[C@@H](CCCC)C(=O)N[C@@H](CC(C)C)C(=O)N[C@H](C(=O)NCCCC[C@H](NC(=O)CCCCCCCCCCCCCCCCC(=O)O)C(=O)O)CSCC(=O)N[C@@H](Cc2ccc(O)cc2)C(=O)N(C)[C@@H](C)C(=O)N[C@@H](CC(N)=O)C(=O)N2CCC[C@H]2C(=O)N[C@@H](CN)C(=O)N[C@@H](CC(C)C)C(=O)N2C[C@H](O)C[C@@H]2C(=O)N[C@@H](Cc2c[nH]c3ccccc23)C(=O)N[C@@H](CCN)C(=O)N[C@@H](Cc2cn(CC(=O)O)c3ccccc23)C(=O)N1C [Example 11143] ({CH2CO}-Y[NMeA]NP[Dap]L[d(cisHyp)]W[Dab][Trp(1-CH2COOH)][NMeNle][NMeNle]LC-{εLys(α-Octadecanedioyl)}; thioether N-14)	0.3 to 9.9 nM
CCCC[C@H]1C(=O)N(C)[C@@H](CCCC)C(=O)N[C@@H](CC(C)C)C(=O)N[C@H](C(=O)NCC(=O)NCC(=O)NCC(=O)NCCCCCCCCCCC(=O)O)CSCC(=O)N[C@@H](Cc2ccc(O)cc2)C(=O)N(C)[C@@H](C)C(=O)N[C@@H](CC(N)=O)C(=O)N2CCC[C@H]2C(=O)N[C@@H](CN)C(=O)N[C@@H](CC(C)C)C(=O)N2C[C@H](O)C[C@H]2C(=O)N[C@@H](Cc2c[nH]c3ccccc23)C(=O)N[C@@H](CCN)C(=O)N[C@@H](Cc2cn(CC(=O)O)c3ccccc23)C(=O)N1C [Example 11091] ({CH2CO}-Y[NMeA]NP[Dap]L[Hyp]W[Dab][Trp(1-CH2COOH)][NMeNle][NMeNle]LCGGG[Aun]-OH; thioether N-14)	0.3 to 9.9 nM

— US10633419B2, “Immunomodulators” (BRISTOL-MYERS SQUIBB COMPANY, priority 2014, dated 2020)
